Data taken from patent US7888319B2, “Compositions and methods for promoting wound healing and tissue regeneration” (MUSC Foundation for Research Development, priority 2004, dated 2011).

System: WB-F344 cells
Test: Scratch injury of WB-F344 cell lines stably expressing ACT-peptide-encoding polynucleotide
Format: cell-based, rat
Details: stable expression with GFP, 24 hours after scratch, vs GFP-only cell line
Source text: WB-F344 cells are a transformed rat epithelial cell line derived by treatment of isolated rat liver cells with a cancer-causing agent (Tsao et al., 1984; Hayashi et al., 1997; Hayashi et al., 1998; Hayashi et al., 2001). WB-F344 cells were transfected with a cDNA expression plasmid construct and selected under antibiotic using standard protocols to generate cell lines that stably expressed an ACT-peptide-encoding-polynucleotide (SEQ ID NO:6) operably linked to a promoter sequence or a green fluorescent protein (GFP) polynucleotide operably linked to a promoter sequence as a control. The polynucleotide encoding the ACT peptide also encoded GFP. As such, expression of the ACT peptide could be assayed by standard GFP fluorescence optics on a light microscope. (a) and (b) show high magnification images of GFP fluorescence in WB-F344 cell lines expressing GFP plus the carboxy terminus ACT peptide sequence (a) or GFP alone (b). Near confluent monolayers of the WB-F344 cell lines were “scratch injured” and allowed to “heal” for 24 hours. […]
WB-F344 cells are a transformed rat epithelial cell line derived by treatment of isolated rat liver cells with a cancer-causing agent (Tsao et al., 1984; Hayashi et al., 1997; Hayashi et al., 1998; Hayashi et al., 2001). […] As such, expression of the ACT peptide could be assayed by standard GFP fluorescence optics on a light microscope. […]

aga cct cgg cct gat gac ctg gag att (DNA AGACCTCGGCCTGATGACCTGGAGATT; expressed or natural sequence) [ACT-peptide-encoding-polynucleotide, polynucleotide encoding ACT peptide plus GFP, operably linked to a promoter, stably expressed in WB-F344 cells]
repopulation of the scratch injury: inhibited repopulation of the scratch injury
